According to patent US20240400584A1, “COMPOUNDS AND METHODS FOR MODULATING SPLICING” (REMIX THERAPEUTICS INC., priority 2021, published 2024):
pIC50: −log10 of the molar value.

Assays:
SMN2 = assay: Gene panel canonical junction qPCR assay, SMN2 CJ mRNA (Table 7); format: cell-based; conditions: Homo sapiens, read-out: SMN2 CJ mRNA decrease IC50
In short: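 A673 or K562 cells treated with compound; canonical exon-junction mRNA measured by RT-qPCR with junction-spanning primers/probe, normalised to GAPDH, GUSB or PPIA and DMSO (ΔΔCt, RQ). Percentage response set from fixed ΔCt assay windows, fitted to a 4-parameter logistic; IC50 is concentration giving 50% CJ decrease.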

[1] = test system: HiBit-tagged Target C in K562 cells; assay: HiBiT protein abundance assay, Target C; format: cell-based, human; conditions: HiBiT-modified K562 cells, 24 hours, luminescence
Method: Compounds described herein were used to screen for effects on quantitative protein abundance using a HiBit assay system (Promega). Quantitative protein abundance was determined by measuring the protein levels of HiBit-tagged protein targets expressed in cell culture via luminescence using the Nano-Glo HiBiT Lytic Detection System, which uses a split complementation assay format to reconstitute NanoBiT enzyme to generate a luminescent signal. A protein abundance assay was developed such that endogenous protein targets could be modified with the HiBiT peptide tag and their abundance could be assessed after compound treatment. Briefly, K562 cell lines containing a HiBiT-modification were treated with various compounds described herein (e.g., compounds of Formulas (I)). After treatment for 24 hours, the protein abundance of a specific target was determined by measuring luminescence.
Cells were maintained in IMDM with 10% FBS. Before the assay, cells were diluted with […] growth media (IMDM+[…] media) and were seeded in a 384-well plate at a density of 10000 cells/well (for each cell line listed in Table 8). Each compound was prepared as a 10-point 3-fold serial dilution in DMSO with the top dose at a final concentration of 10 μM in the well. Unmodified K562 cells were added at the previously specified density with DMSO to serve as an assay baseline and positive control (PC) and DMSO only with the respective modified cell lines was added to the negative control (NC) columns. Final DMSO concentration was kept at or below 0.25% o. Treated cell plates were placed in an incubator at 37° C. with […] for 24 hours. After 24 hours, 25 μL of Complete HiBit Lytic reagent was added to each well at room temperature (e.g. one plate requiring 10 mL Lytic Buffer, 100 μL LgBiT Protein, 200 μL Lytic Substrate), shaken for 5 minutes at 600 RPM, then left to sit for 10 minutes for signal to stabilize before reading on a Spark Cyto plate reader (Tecan) with a 500 ms measurement time.
To determine compound effects on protein abundance of each target in Table 9, the percent response for each respective cell line was calculated at each compound concentration as follows:
For the normalized response at each concentration, a four-parameter logistical regression was fit to the data and the response was interpolated at the […] to determine a concentration for protein abundance at 50% o (IC50) the untreated control.

SMILES | pIC50 (SMN2) | pIC50 [1]
Cc1ncc(-c2ccc3c(c2)COc2nc(N(C)[C@@H]4C[C@H]5CC[C@@H](C4)N5)ccc2-3)o1 [Compound 155] | > 7.00 | > 7.00
CN(c1ccc2c(n1)OCc1cc(-n3nccn3)ccc1-2)[C@@H]1C[C@H]2CC[C@@H](C1)N2 [Compound 151] | > 7.00 | > 7.00
CN(c1cnc2c(n1)OCc1cc(-c3cn[nH]c3)ccc1-2)[C@@H]1C[C@H]2CC[C@@H](C1)N2 [Compound 144] | < 5.00 | > 7.00
Cc1cnc(-c2ccc3c(c2)COc2nc(N(C)[C@@H]4C[C@H]5CC[C@@H](C4)N5)ccc2-3)o1 [Compound 206] | 6.00 to 7.00 | 6.00 to 7.00
Cc1[nH]ncc1-c1ccc2c(c1)COc1nc(N(C)[C@@H]3C[C@H]4CC[C@@H](C3)N4)ccc1-2 [Compound 154] | 6.00 to 7.00 | 6.00 to 7.00
c1cnn(-c2ccc3c(c2)COc2nc(NC4CNC4)ccc2-3)c1 [Compound 166] | 5.00 to 6.00 | < 5.00
CC1(C)CC(Nc2ccc3c(n2)OCc2cc(-n4cccn4)ccc2-3)CC(C)(C)N1 [Compound 165] | > 7.00 | 6.00 to 7.00
CN(c1ccc2c(n1)CCOc1cc(-n3cccn3)ccc1-2)C1CC(C)(C)NC(C)(C)C1 [Compound 129] | < 5.00 | < 5.00
CN(c1ccc2c(n1)COc1cc(-n3cccn3)ccc1-2)C1CC(C)(C)NC(C)(C)C1 [Compound 125] | < 5.00 | 5.00 to 6.00
COc1cc(-c2ccc3c(c2)COc2nc(N(C)[C@@H]4C[C@H]5CC[C@@H](C4)N5)ccc2-3)cnn1 [Compound 159] | > 7.00 | > 7.00
CC1(C)CC(Nc2ccc3c(c2)COc2cc(-n4cccn4)ccc2-3)CC(C)(C)N1 [Compound 118] | < 5.00 | 5.00 to 6.00
CN(c1ccc2c(n1)COc1cc(-c3cn[nH]c3)ccc1-2)[C@@H]1C[C@H]2CC[C@@H](C1)N2 [Compound 121] | 6.00 to 7.00 | 6.00 to 7.00
COc1cc(-c2ccc3c(c2)COc2nc(N4CCC(N(C)C5CCC5)C4)ccc2-3)cnn1 (stereo not shown) [Compound 307, N-cyclobutyl-1-[8-(6-methoxypyridazin-4-yl)-6H-isochromeno[3,4-b]pyridin-3-yl]-N-methylpyrrolidin-3-amine] | > 7.00 | 6.00 to 7.00
CN(c1ccc2c(c1)CCOc1cc(-n3cccn3)ccc1-2)[C@@H]1C[C@H]2CC[C@@H](C1)N2 [Compound 113] | < 5.00 | < 5.00
CN(c1ccc2c(n1)OCc1cc(-c3ccc(=O)n(C)c3)ccc1-2)[C@@H]1C[C@H]2CC[C@@H](C1)N2 [Compound 158] | 6.00 to 7.00 | 5.00 to 6.00
CN(c1ccc2c(c1)COc1cc(-n3cccn3)ccc1-2)C1CC(C)(C)NC(C)(C)C1 [Compound 117] | < 5.00 | 5.00 to 6.00
CN(c1ccc2c(n1)OCc1cc(-n3ccnc3)ccc1-2)[C@@H]1C[C@H]2CC[C@@H](C1)N2 [Compound 163] | > 7.00 | > 7.00
CN(c1ccc2c(n1)OCc1cc(-c3cn[nH]c3)ccc1-2)[C@@H]1C[C@H]2CC[C@@H](C1)N2 [Compound 108] | > 7.00 | > 7.00
Cc1cn(-c2ccc3c(c2)COc2nc(N(C)[C@@H]4C[C@H]5CC[C@@H](C4)N5)ccc2-3)cn1 [Compound 164] | > 7.00 | > 7.00
Cc1ncc(-c2ccc3c(c2)COc2nc(O[C@@H]4C[C@H]5C[C@@H](C4)N5)ccc2-3)s1 [Compound 208] | > 7.00 | > 7.00
c1cc2c(cc1-c1cn[nH]c1)COc1nc(O[C@@H]3C[C@H]4CC[C@@H](C3)N4)ccc1-2 [Compound 218] | > 7.00 | 6.00 to 7.00
CN(c1ccc2c(c1)OCc1cc(-c3cn[nH]c3)ccc1-2)[C@@H]1C[C@H]2CC[C@@H](C1)N2 [Compound 104] |  | 5.00 to 6.00
CC(C)Oc1cnnc(-c2ccc3c(c2)COc2nc(N4CCC(NC(C)(C)C)C4)ccc2-3)c1 (stereo not shown) [Compound 286] | < 5.00 | 5.00 to 6.00
CN(c1ccc2c(n1)OCc1cc(-n3cccn3)ccc1-2)C1CC(C)(C)NC(C)(C)C1 [Compound 148] | 6.00 to 7.00 | 5.00 to 6.00

SMILES | pIC50 (SMN2) | pIC50 [1]
CN(c1ccc2c(n1)OCc1cc(-c3cnc(=O)[nH]c3)ccc1-2)[C@@H]1C[C@H]2CC[C@@H](C1)N2 [Compound 161] | < 5.00 | < 5.00
CN(c1ccc2c(n1)OCc1cc(-n3ccnn3)ccc1-2)[C@@H]1C[C@H]2CC[C@@H](C1)N2 [Compound 152] | > 7.00 | 6.00 to 7.00
CN(c1ccc2c(n1)OCCc1cc(-c3cn[nH]c3)ccc1-2)[C@@H]1C[C@H]2CC[C@@H](C1)N2 [Compound 146] | < 5.00 | 5.00 to 6.00
CN(c1ccc2c(n1)OCc1cc(-c3ccc(=O)[nH]c3)ccc1-2)[C@@H]1C[C@H]2CC[C@@H](C1)N2 [Compound 157] | 6.00 to 7.00 | 5.00 to 6.00
COc1cc(-c2ccc3c(c2)COc2nc(N(C)[C@@H]4C[C@H]5CC[C@@H](C4)N5)ccc2-3)ccn1 [Compound 156] | 6.00 to 7.00 | 6.00 to 7.00
CN(c1ccc2c(n1)OCc1cc(-c3cn[nH]c3)ccc1-2)C1CCNCC1 [Compound 116] | 6.00 to 7.00 | 5.00 to 6.00
CN(c1ccc2c(n1)OCc1cc(-c3ccn(C)c(=O)c3)ccc1-2)[C@@H]1C[C@H]2CC[C@@H](C1)N2 [Compound 153] | > 7.00 | > 7.00
c1cc2c(cc1-c1cn[nH]c1)COc1nc(N[C@@H]3C[C@H]4CC[C@@H](C3)N4)cnc1-2 [Compound 143] | 6.00 to 7.00 | 6.00 to 7.00
CN(c1ccc2c(n1)OCc1cc(-c3cnn(C)c(=O)c3)ccc1-2)[C@@H]1C[C@H]2CC[C@@H](C1)N2 [Compound 160] | > 7.00 | > 7.00
c1cc2c(cc1-c1cn[nH]c1)COc1nc(N3CCC34CCNC4)ccc1-2 (stereo not shown) [Compound 207] | < 5.00 | 5.00 to 6.00
C[C@H]1C[C@H](N(C)c2ccc3c(c2)OCc2cc(-c4cn[nH]c4)ccc2-3)CCN1 [Compound 102] |  | 5.00 to 6.00
CN(c1ccc2c(c1)OCc1cc(-n3cccn3)ccc1-2)[C@@H]1C[C@H]2CC[C@@H](C1)N2 [Compound 105] | < 5.00 | 5.00 to 6.00
COc1cc(-c2ccc3c(c2)COc2nc(N4CCC(N(C)C)C4)ccc2-3)cnn1 (stereo not shown) [Compound 306, 1-[8-(6-methoxypyridazin-4-yl)-6H-isochromeno[3,4-b]pyridin-3-yl]-N,N-dimethylpyrrolidin-3-amine] | 6.00 to 7.00 | 6.00 to 7.00
CN(c1cnc2c(n1)OCc1cc(-c3cn[nH]c3)ccc1-2)C1CC(C)(C)NC(C)(C)C1 [Compound 142] | 6.00 to 7.00 | 5.00 to 6.00
CN(c1ccc2c(n1)OCc1cc(-c3cn[nH]c3)ccc1-2)C1CC(C)(C)NC(C)(C)C1 [Compound 147] | < 5.00 | 6.00 to 7.00
CN(c1ccc2c(n1)COc1cc(-n3cccn3)ccc1-2)[C@@H]1C[C@H]2CC[C@@H](C1)N2 [Compound 124] | 5.00 to 6.00 | 5.00 to 6.00
CN(c1ccc2c(n1)OCc1cc(-c3cc(=O)n(C)cn3)ccc1-2)[C@@H]1C[C@H]2CC[C@@H](C1)N2 [Compound 162] | > 7.00 | > 7.00
COc1cc(-c2ccc3c(c2)COc2nc(N4CCC(NC5(C)CCC5)C4)ccc2-3)cnn1 (stereo not shown) [Compound 285, 1-[8-(6-methoxypyridazin-4-yl)-6H-isochromeno[3,4-b]pyridin-3-yl]-N-(1-methylcyclobutyl)pyrrolidin-3-amine] | > 7.00 | 6.00 to 7.00
COc1cc(-c2ccc3c(c2)COc2nc(N4CCN[C@@H](C)C4)ccc2-3)cnn1 [Compound 287] | 6.00 to 7.00 | 6.00 to 7.00
CC1(C)CC(Nc2ccc3c(n2)COc2cc(-n4cccn4)ccc2-3)CC(C)(C)N1 [Compound 134] | 5.00 to 6.00 | 5.00 to 6.00
CN(c1ccc2c(n1)OCCc1cc(-c3cn[nH]c3)ccc1-2)C1CC(C)(C)NC(C)(C)C1 [Compound 145] | 5.00 to 6.00 | 5.00 to 6.00
C[C@@H]1C[C@H](N(C)c2ccc3c(c2)OCc2cc(-c4cn[nH]c4)ccc2-3)CCN1 [Compound 101] |  | 5.00 to 6.00
COc1cc(-c2ccc3c(c2)COc2nc(O[C@@H]4C[C@H]5COC[C@@H](C4)N5)ccc2-3)cnn1 [Compound 290, (exo)-7-{[8-(6-methoxypyridazin-4-yl)-6H-isochromeno[3,4-b]pyridin-3-yl]oxy}-3-oxa-9-azabicyclo[3.3.1]nonane] | > 7.00 | > 7.00
